Earlier results in US20220193065A1, “COMPOSITIONS AND METHODS TO TREAT NON-ALCOHOLIC FATTY LIVER DISEASES (NAFLD)” (Coherus Biosciences, Inc., priority 2019, published 2022).

Conditions: monotherapy; background statement

Cc1cc(F)c(C(=O)Nc2cccc(-c3nncn3C(C)C)n2)cc1-n1cnc(C2CC2)c1 [selonsertib]
primary endpoint of the STELLAR-4 phase 3 clinical trial: failed to meet the primary endpoint
